The text below walks through data of publication PMC8962522, “Direct interaction of TrkA/CD44v3 is essential for NGF-promoted aggressiveness of breast cancer cells” (Journal of Experimental & Clinical Cancer Research : CR, 2022).

What all share (assay type): cell-based
The test system of test [1] is SUM-159-PT cells. The experiment in a line: Scratch/wound migration assay, SUM-159-PT. As to conditions: 24 h after treatment; Supplementary Fig. 9 C & D; effects as in MDA-MB-231 (inhibition of NGF-induced migration).
Test [2] concerns SUM-159-PT cells. The experiment in a line: Clonogenicity assay, SUM-159-PT. As to conditions: Supplementary Fig. 9 A & B (P4; same observations = colony forming units reduced as in MDA-MB-231), Supplementary Fig. 10 B (siCD44v3).
For test [3], the system named is MDA-MB-231 cells. The experiment in a line: Clonogenicity assay, MDA-MB-231. To be noted: peptide 50 ng/mL, 2% FBS; versus control cells or scramble peptide; siCD44v3: 10 days after siRNA transfection. On the procedure:
The clonogenicity assay was performed to assess cell survival. MDA-MB-231 cells (250 cells/mL) were seeded into 6 plate wells (2% FBS medium; 2 mL/well). When the cells attached (within 3 h), they were treated with the peptide (scramble or P4; 50 ng/mL) or no peptide (control) and incubated for 24 h. The next day, a second-round treatment was performed. Three days later, the medium was changed, and the cells were incubated for another 5 days. After 10 days of culture, the medium was removed, and the cells were washed twice (PBS 1×), fixed (4% PAF for 30 min at RT), colored (violet crystal 2%; 30 min; RT) and washed twice (distilled water). Representative pictures of one well were taken, and the colonies were counted.
Therefore, in this study, we assessed TrkA binding to CD44v3 in MDA-MB-231 cells, which were used as TNBC model cells. […] Therefore, we evaluated the physiological consequences of TrkA/CD44v3 complex dissociation induced by CD44v3 mimetic peptide 4 on MDA-MB-231 cell phenotypes (Fig. 4). […] We first determined the effect of CD44v3 on the length-to-width (l/w) ratio of the cells (elongation factor) (Fig. 4C-E). […]
Fig. 4 CD44v3 mimetic peptide 4 inhibits MDA-MB-231 breast cancer cell growth and migration/invasion. Clonogenic MDA-MB-231 cell growth was measured after 10 days in the presence of a scramble peptide (SP) or CD44v3 mimetic peptide (P4) (A, B). […]

For the sequence “IDDDEDFISST [Peptide 4, mimetic peptide 4 (…) corresponding to the C-terminal region of CD44v3]”, the “effect on migration of SUM-159-PT cells” value in test [1] is recorded as “We also confirmed the effects of CD44v3 mimetic peptide 4 on migration in SUM-159-PT cells”. In addition, the “effect on clonogenic growth of SUM-159-PT cells” value in test [2] is “The same observations were made in SUM-159PT”. The “effect on clonogenic growth of MDA-MB-231 cells” value in test [3] is “reduced the proportion of MDA-MB-231 colony forming units by two-thirds”.
